Experimental data reported in patent US9206164B2, “Pyrazole compounds as CRTH2 antagonists” (Boehringer Ingelheim International GmbH, priority 2011, dated 2015).

target: human CRTH2 receptor (Homo sapiens (Human), UniProt Q9Y5Y4); assay: CRTH2 receptor radioligand binding assay (SPA, [3H]-PGD2 displacement); conditions: antagonistic activities of selected compounds
Procedure: The binding of CRTH2 antagonists is determined using membranes prepared from Chinese hamster ovary cells (CHO-K1 cells) transfected with the human CRTH2 receptor (CHO-K1-hCRTH2 cells, Perkin Elmer, Cat No ES-561-C). To produce cell membranes the CHO-K1-hCRTH2 cells are cultured in suspension in CHO SFMII medium supplemented with 400 μg/ml G418. The cells are harvested by centrifugation at 300 g for 10 min at room temperature. The cell pellet is resuspended in Phosphate Buffer Saline (PBS) including a protease inhibitor mix (Complete, Roche) and adjusted to a concentration of 10E7 cells/ml. The CHO-K1-hCRTH2 cells are disrupted by nitrogen […] to obtain the membrane preparation. Cell debris is removed by centrifugation (500 g at 4° C., 30 min) and the supernatant is transferred into fresh tubes followed by a second centrifugation at 40000 g for 1 h at 4° C. to sediment the membranes. The membranes are suspended in SPA incubation buffer (50 mM Tris HCl, 10 mM MgCl2, 150 mM NaCl, 1 mM EDTA, pH 7.4) without bovine serum albumin, homogenized by passing through a single use needle (Terumo, 23G×1″), and stored in aliquots at −80° C.
The CRTH2 receptor binding assay is performed in a scintillation proximity assay (SPA) format with the radioligand [^3H]-PGD2 (Perkin Elmer, NET616000MC). CHO-K1-hCRTH2 cell membranes are again homogenized by passing through a single use needle (Terumo, 23G×1″) and diluted in SPA incubation buffer in suitable concentrations (0.5-10 μg protein/well). The SPA assay is set up in 96 well microtiter plates (Perkin Elmer, CatNo. 6005040) in SPA incubation buffer with a final volume of 200 μl per well and final concentration of 50 mM Tris-HCl, 10 mM MgCl2, 150 mM NaCl, 1 mM EDTA pH 7.4, 0.1% bovine serum albumin). The SPA assay mixture contains 60 μl of the membrane suspension, 80 μl of Wheat Germ Agglutinin coated PVT beads (GE Healthcare, RPNQ-0001, 0.3 mg/well), 40 μl of [^3H]-PGD2 diluted in SPA buffer to a final concentration of 1 nM (50 000 dpm) and 20 μl of the test compound (dissolved in dimethylsulfoxid). The SPA assay mixture is incubated for 3 h at room temperature. Bound radioactivity is determined with a scintillation counter (Micro Beta Trilux, Wallac).
The binding of [^3H]-PGD2 to CHO-K1-hCRTH2 cell membranes is determined in the absence (total binding, Bo) and presence (non-specific binding, NSB) of unlabelled PGD2 (1 μM, Cayman Chemical, Cat No 12010) or a reference CRTH2 antagonist (10 μM CAY10471, Cayman Chemical, Cat No 10006735).
Determination of the affinity of a test compound is calculated by subtraction of the non-specific binding (NSB) from the total binding (Bo) or the binding in the presence of the test compound (B) at a given compound concentration. The NSB value is set to 100% inhibition. The Bo−NSB value is set to 0% inhibition.
% inhibition values were obtained at a defined compound concentration, e.g. at 1 μM, % inhibition of the test compound was calculated by the formula 100−((B−NSB)*100/(Bo−NSB)). % inhibition values above 100% are founded by assay variance.

Sequence of human CRTH2 receptor (Q9Y5Y4 whole entry): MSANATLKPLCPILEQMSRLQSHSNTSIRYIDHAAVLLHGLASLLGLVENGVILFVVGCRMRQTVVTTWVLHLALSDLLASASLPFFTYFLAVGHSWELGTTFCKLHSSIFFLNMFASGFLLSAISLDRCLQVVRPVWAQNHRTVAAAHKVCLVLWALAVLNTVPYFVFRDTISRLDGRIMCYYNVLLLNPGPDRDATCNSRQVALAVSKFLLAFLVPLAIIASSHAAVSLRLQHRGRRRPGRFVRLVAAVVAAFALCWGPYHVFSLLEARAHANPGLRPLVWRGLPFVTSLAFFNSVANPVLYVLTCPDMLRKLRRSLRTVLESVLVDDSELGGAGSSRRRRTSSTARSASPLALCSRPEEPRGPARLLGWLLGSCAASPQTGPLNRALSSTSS

Ki	Structure (SMILES)
11.3 nM	Cc1nn(Cc2ccc(-c3cc4cc(C(F)(F)F)ccc4[nH]3)cc2)c(C)c1CC(=O)O [Compound 2]
0.7 nM	Cc1nn(Cc2ccc(-c3cc4ccc(C(F)(F)F)cc4[nH]3)cc2C(F)(F)F)c(C)c1CC(=O)O [Compound 11]
155 nM	Cc1nn(Cc2ccc(-c3cc4cccnc4[nH]3)cc2F)c(C)c1CC(=O)O [Compound 12]
2.3 nM	CCc1nn(Cc2ccc(-c3nc4ccccc4[nH]3)cc2)c(CC)c1CC(=O)O [Compound 15]
9.6 nM	COc1ccc2[nH]c(-c3ccc(Cn4nc(C)c(CC(=O)O)c4C)cc3)nc2n1 [Compound 44]
0.2 nM	CCc1nn(Cc2ccc(-c3nc4cc(Cl)c(Cl)cc4[nH]3)cc2)c(CC)c1CC(=O)O [Compound 16]
1.6 nM	Cc1nn(Cc2ccc(-c3nc4cc(Br)ccc4[nH]3)cc2F)c(C)c1CC(=O)O [Compound 94]
1 nM	CCc1nn(Cc2ccc(-c3nc4cc(OC)ccc4[nH]3)cc2F)c(CC)c1CC(=O)O [Compound 75]
0.4 nM	CCc1nn(Cc2ccc(-c3nc4cc(F)c(Cl)cc4[nH]3)cc2)c(CC)c1CC(=O)O [Compound 27]
0.7 nM	COc1ccc2[nH]c(-c3ccc(Cn4nc(C)c(CC(=O)O)c4C)c(F)c3)nc2n1 [Compound 92]
87.4 nM	Cc1nn(Cc2ccc(-c3nc4cccnc4[nH]3)cc2F)c(C)c1CC(=O)O [Compound 107]
87.6 nM	CCc1nn(Cc2ccc(-c3nc4cncc(C)c4[nH]3)cc2F)c(CC)c1CC(=O)O [Compound 103]
2.5 nM	Cc1nn(Cc2ccc(-c3nc4c(Cl)cc(Cl)cc4[nH]3)cc2F)c(C)c1CC(=O)O [Compound 73]
5.5 nM	Cc1nn(Cc2ccc(-c3nc4c(F)cc(F)cc4[nH]3)cc2F)c(C)c1CC(=O)O [Compound 77]
646 nM	Cc1nn(Cc2ccc(-c3nc4c(C)cncc4[nH]3)cc2)c(C)c1CC(=O)O [Compound 29]
0.5 nM	CCc1nn(Cc2ccc(-c3nc4cc(Cl)ccc4[nH]3)cc2F)c(CC)c1CC(=O)O [Compound 80]
0.1 nM	CCc1nn(Cc2ccc(-c3nc4cc5ccccc5cc4[nH]3)cc2)c(CC)c1CC(=O)O [Compound 19]
60.9 nM	CCc1nn(Cc2ccc(-c3nc4ccncc4[nH]3)cc2F)c(CC)c1CC(=O)O [Compound 90]
21.7 nM	Cc1nn(Cc2ccc(-c3nc4cc(C#N)ccc4[nH]3)cc2F)c(C)c1CC(=O)O [Compound 78]
1.3 nM	CCc1nn(Cc2ccc(-c3nc4cc(OC)ccc4[nH]3)cc2)c(CC)c1CC(=O)O [Compound 39]

Ki	Structure (SMILES)
2.3 nM	Cc1nn(Cc2ccc(-c3nc4cc(F)c(Cl)cc4[nH]3)cc2)c(C)c1CC(=O)O [Compound 53]
8.7 nM	Cc1nn(Cc2ccc(-c3nc4c(F)cccc4[nH]3)cc2)c(C)c1CC(=O)O [Compound 52]
0.3 nM	CCc1nn(Cc2ccc(-c3nc4cc(C)c(Cl)cc4[nH]3)cc2F)c(CC)c1CC(=O)O [Compound 106]
66.7 nM	CCc1nn(Cc2ccc(-c3nc4cc(Cl)c(Cl)cc4n3C)cc2)c(CC)c1CC(=O)O [Compound 35]
18.5 nM	Cc1nn(Cc2ccc(-c3nc4cc(Cl)cnc4[nH]3)cc2F)c(C)c1CC(=O)O [Compound 100]
308 nM	Cc1nn(Cc2ccc(-c3cc4ncccc4[nH]3)cc2)c(C)c1CC(=O)O [Compound 10]
0.4 nM	CCc1nn(Cc2ccc(-c3nc4c(Cl)cc(Cl)cc4[nH]3)cc2)c(CC)c1CC(=O)O [Compound 65]
394 nM	Cc1nn(Cc2ccccc2-c2cc3ccc(Cl)cc3[nH]2)c(C)c1CC(=O)O [Compound 8]
2.5 nM	Cc1nn(Cc2ccc(-c3nc4cc(C(F)(F)F)ccc4[nH]3)cc2F)c(C)c1CC(=O)O [Compound 111]
683 nM	Cc1nn(Cc2ccc(-c3nc4cncc(C)c4[nH]3)cc2F)c(C)c1CC(=O)O [Compound 85]
5.7 nM	COc1ccc2[nH]c(-c3ccc(Cn4nc(C)c(CC(=O)O)c4C)c(F)c3)nc2c1 [Compound 96]
1.1 nM	CCc1nn(Cc2ccc(-c3nc4c(F)cc(F)cc4[nH]3)cc2)c(CC)c1CC(=O)O [Compound 50]
340 nM	CCc1nn(Cc2ccc(-c3nc4ccccc4n3C)cc2)c(CC)c1CC(=O)O [Compound 46]
299 nM	Cc1nn(Cc2ccc(-c3nc4ccncc4[nH]3)cc2)c(C)c1CC(=O)O [Compound 60]
2.6 nM	CCc1nn(Cc2ccc(-c3nc4cc(C#N)ccc4[nH]3)cc2F)c(CC)c1CC(=O)O [Compound 81]
12.8 nM	Cc1nn(Cc2ccc(-c3nc4c(C)cccc4[nH]3)cc2F)c(C)c1CC(=O)O [Compound 93]
0.5 nM	CCc1nn(Cc2ccc(-c3nc4cc(C)c(Cl)cc4[nH]3)cc2)c(CC)c1CC(=O)O [Compound 55]
0.5 nM	Cc1nn(Cc2ccc(-c3nc4cc(C(C)(C)C)ccc4[nH]3)cc2)c(C)c1CC(=O)O [Compound 33]
4.2 nM	Cc1nn(Cc2ccc(-c3cc4cc(Cl)ccc4[nH]3)cc2)c(C)c1CC(=O)O [Compound 3]
0.3 nM	CCc1nn(Cc2ccc(-c3nc4cc(Cl)ccc4[nH]3)cc2)c(CC)c1CC(=O)O [Compound 45]

Ki	Structure (SMILES)
7.4 nM	Cc1nn(Cc2ccc(-c3nc4cc(Br)cnc4[nH]3)cc2)c(C)c1CC(=O)O [Compound 38]
0.5 nM	Cc1nn(Cc2ccc(-c3cc4ccc(C(F)(F)F)cc4[nH]3)cc2F)c(C)c1CC(=O)O [Compound 5]
12.4 nM	Cc1nn(Cc2ccc(-c3nc4cc(Cl)cnc4[nH]3)cc2)c(C)c1CC(=O)O [Compound 40]
18.4 nM	Cc1nn(Cc2ccc(-c3nc4cc(C#N)ccc4[nH]3)cc2)c(C)c1CC(=O)O [Compound 62]
1 nM	CCc1nn(Cc2ccc(-c3nc4cc(F)ccc4[nH]3)cc2F)c(CC)c1CC(=O)O [Compound 82]
0.8 nM	Cc1nn(Cc2ccc(-c3nc4cc5ccccc5cc4[nH]3)cc2)c(C)c1CC(=O)O [Compound 18]
1.4 nM	Cc1nn(Cc2ccc(-c3nc4ccc(C(F)(F)F)cc4[nH]3)cc2)c(C)c1CC(=O)O [Compound 21]
1.9 nM	Cc1nn(Cc2ccc(-c3nc4cc(Cl)ccc4[nH]3)cc2)c(C)c1CC(=O)O [Compound 24]
1 nM	Cc1nn(Cc2ccc(-c3nc4c(Cl)cc(Cl)cc4[nH]3)cc2)c(C)c1CC(=O)O [Compound 66]
3.7 nM	CCc1nn(Cc2ccc(-c3nc4cc(C#N)ccc4[nH]3)cc2)c(CC)c1CC(=O)O [Compound 34]
1.2 nM	Cc1nn(Cc2ccc(-c3nc4cc(Br)ccc4[nH]3)cc2)c(C)c1CC(=O)O [Compound 32]
1.3 nM	CCc1nn(Cc2ccc(-c3nc4cc(C)ccc4[nH]3)cc2)c(CC)c1CC(=O)O [Compound 58]
176 nM	Cc1nn(Cc2ccc(-c3nc4cc(Cl)ccc4n3C)cc2)c(C)c1CC(=O)O [Compound 25]
97.8 nM	Cc1nn(Cc2cccc(-c3cc4ccc(C(F)(F)F)cc4[nH]3)c2)c(C)c1CC(=O)O [Compound 9]
118 nM	Cc1nn(Cc2ccc(-c3nc4cccnc4[nH]3)cc2)c(C)c1CC(=O)O [Compound 31]
1.1 nM	CCc1nn(Cc2ccc(-c3nc4c(F)c(F)ccc4[nH]3)cc2)c(CC)c1CC(=O)O [Compound 43]
1.7 nM	CCc1nn(Cc2ccc(-c3nc4cc(Cl)cnc4[nH]3)cc2)c(CC)c1CC(=O)O [Compound 42]
12.9 nM	CCc1nn(Cc2ccc(-c3nc4cccnc4[nH]3)cc2)c(CC)c1CC(=O)O [Compound 48]
56.4 nM	CCc1nn(Cc2ccc(-c3nc4ccncc4[nH]3)cc2)c(CC)c1CC(=O)O [Compound 61]
